# Measured values from ChEMBL document CHEMBL3885861, “Open TG-GATES”.
# Species: Rattus norvegicus
# Assay: Open TG-GATES - Regimen: Daily Repeat
# Type: toxicity, organism-based, Sprague-Dawley
# Design: regimen Daily Repeat, gender Male, age 6 weeks
# Conditions: in vivo, po, route gavage; for Eos / Fbg / Hb / Ht / Lym / MCH / MCV / Mono / Neu / PT / Plat / RBC / Ret / WBC / APTT / Bas: tissue Blood; for KIDNEY_L / KIDNEY_R / KIDNEY_TOTAL: tissue Kidney; for LIVER: tissue Liver; for ALP / ALT / AST / BUN / CRE / Ca / Cl / DBIL / GLC / IP / K / LDH / Na / PL / RALB / TBIL / TC / TP / gamma-GTP: tissue Plasma
# [1] = 100 mg/kg, 72 h, dose level Middle, time 3 day
# [2] = 100 mg/kg, […], dose level Middle, time 7 day
# [3] = 100 mg/kg, […], dose level Middle, time 14 day
# [4] = 100 mg/kg, […], dose level Middle, time 28 day
# [5] = 300 mg/kg, 72 h, dose level High, time 3 day
compound,measurement,setting,value
NC(=O)N1c2ccccc2C=Cc2ccccc21 [CARBAMAZEPINE],Eos,[1],1.2%
same,Fbg,[1],224.6 mg/dL
same,Hb,[1],13.6 g/dL
same,Ht,[1],39.9%
same,Lym,[1],79%
same,MCH,[1],21.3 pg
same,MCV,[1],62.4 fL
same,Mono,[1],2.4%
same,Neu,[1],16.4%
same,PT,[1],11.9 s
same,Plat,[1],125.3 x10_4/uL
same,RBC,[1],638.8 x10_4/ul
same,Ret,[1],4.9%
same,WBC,[1],79.2 x10_2/uL
same,KIDNEY_L,[1],1 g
same,KIDNEY_R,[1],1 g
same,KIDNEY_TOTAL,[1],2.1 g
same,LIVER,[1],12.1 g
same,ALP,[1],795 IU/L
same,ALT,[1],39.6 IU/L
same,AST,[1],67.2 IU/L
same,BUN,[1],15.8 mg/dL
same,CRE,[1],0.4 mg/dL
same,Ca,[1],11.1 mg/dL
same,Cl,[1],103.4 meq/L
same,DBIL,[1],0.084 mg/dL
same,GLC,[1],217.2 mg/dL
same,IP,[1],7.9 mg/dL
same,K,[1],3.5 meq/L
same,LDH,[1],212.4 IU/L
same,Na,[1],141.4 meq/L
same,PL,[1],154.4 mg/dL
same,RALB,[1],3.4 g/dL
same,TBIL,[1],0.1 mg/dL
same,TC,[1],80.6 mg/dL
same,TP,[1],5.8 g/dL
same,gamma-GTP,[1],0.8 IU/L
same,TERMINAL_BW,[2],271.4 g
same,TERMINAL_BW,[3],314.7 g
same,TERMINAL_BW,[4],397.6 g
same,APTT,[2],20.2 s
same,Bas,[2],0%
same,Eos,[2],1%
same,Fbg,[2],229.8 mg/dL
same,Hb,[2],13.3 g/dL
same,Ht,[2],39.4%
same,Lym,[2],85%
same,MCH,[2],21.1 pg
same,MCV,[2],62.5 fL
same,Mono,[2],2.6%
same,Neu,[2],10.8%
same,PT,[2],11.6 s
same,Plat,[2],134.8 x10_4/uL
same,RBC,[2],630.8 x10_4/ul
same,Ret,[2],5.1%
same,WBC,[2],131.2 x10_2/uL
same,APTT,[3],21.8 s
same,Bas,[3],0%
same,Eos,[3],0.6%
same,Fbg,[3],213.4 mg/dL
same,Hb,[3],14.4 g/dL
same,Ht,[3],41.3%
same,Lym,[3],80%
same,MCH,[3],20.6 pg
same,MCV,[3],59.1 fL
same,Mono,[3],2%
same,Neu,[3],16%
same,PT,[3],12.4 s
same,Plat,[3],122.9 x10_4/uL
same,RBC,[3],698.6 x10_4/ul
same,Ret,[3],3.8%
same,WBC,[3],129.1 x10_2/uL
same,APTT,[4],21.1 s
same,Bas,[4],0%
same,Eos,[4],1.2%
same,Fbg,[4],222 mg/dL
same,Hb,[4],15.7 g/dL
same,Ht,[4],44.3%
same,Lym,[4],80%
same,MCH,[4],19.5 pg
same,MCV,[4],55.1 fL
same,Mono,[4],2.4%
same,Neu,[4],15.4%
same,PT,[4],12.8 s
same,Plat,[4],105.9 x10_4/uL
same,RBC,[4],804 x10_4/ul
same,Ret,[4],2%
same,WBC,[4],98.2 x10_2/uL
same,KIDNEY_L,[2],1.2 g
same,KIDNEY_R,[2],1.1 g
same,KIDNEY_TOTAL,[2],2.3 g
same,KIDNEY_L,[3],1.3 g
same,KIDNEY_R,[3],1.3 g
same,KIDNEY_TOTAL,[3],2.6 g
same,KIDNEY_L,[4],1.6 g
same,KIDNEY_R,[4],1.5 g
same,KIDNEY_TOTAL,[4],3.1 g
same,LIVER,[2],14.5 g
same,LIVER,[3],14.8 g
same,LIVER,[4],16.8 g
same,ALP,[2],857.6 IU/L
same,ALT,[2],34 IU/L
same,AST,[2],63 IU/L
same,BUN,[2],17 mg/dL
same,CRE,[2],0.5 mg/dL
same,Ca,[2],10.7 mg/dL
same,Cl,[2],102.2 meq/L
same,DBIL,[2],0.1 mg/dL
same,GLC,[2],207.6 mg/dL
same,IP,[2],7.3 mg/dL
same,K,[2],3.6 meq/L
same,LDH,[2],233.2 IU/L
same,Na,[2],141.2 meq/L
same,PL,[2],175 mg/dL
same,RALB,[2],3.5 g/dL
same,TBIL,[2],0.1 mg/dL
same,TC,[2],93.4 mg/dL
same,TP,[2],5.9 g/dL
same,gamma-GTP,[2],1 IU/L
same,ALP,[3],733.4 IU/L
same,ALT,[3],37.6 IU/L
same,AST,[3],64.6 IU/L
same,BUN,[3],16.5 mg/dL
same,CRE,[3],0.5 mg/dL
same,Ca,[3],10.6 mg/dL
same,Cl,[3],101.6 meq/L
same,DBIL,[3],0.1 mg/dL
same,GLC,[3],205.4 mg/dL
same,IP,[3],7.5 mg/dL
same,K,[3],3.7 meq/L
same,LDH,[3],203.2 IU/L
same,Na,[3],141.4 meq/L
same,PL,[3],161.2 mg/dL
same,RALB,[3],3.4 g/dL
same,TBIL,[3],0.2 mg/dL
same,TC,[3],84.4 mg/dL
same,TP,[3],5.9 g/dL
same,gamma-GTP,[3],1.2 IU/L
same,ALP,[4],641.4 IU/L
same,ALT,[4],41.2 IU/L
same,AST,[4],62.2 IU/L
same,BUN,[4],17.4 mg/dL
same,CRE,[4],0.4 mg/dL
same,Ca,[4],10.2 mg/dL
same,Cl,[4],101.8 meq/L
same,DBIL,[4],0.092 mg/dL
same,GLC,[4],213.8 mg/dL
same,IP,[4],7 mg/dL
same,K,[4],3.6 meq/L
same,LDH,[4],138.6 IU/L
same,Na,[4],141.4 meq/L
same,PL,[4],158.2 mg/dL
same,RALB,[4],3.5 g/dL
same,TBIL,[4],0.1 mg/dL
same,TP,[4],6.2 g/dL
same,gamma-GTP,[4],0.6 IU/L
same,TERMINAL_BW,[5],224.7 g
same,APTT,[5],20.4 s
